In this experiment the target is Botulinum neurotoxin type F (Clostridium botulinum) (UniProt P30996). Put plainly: BoNT/F light chain protease inhibitor potency, dose response, biochemical, cherry pick 1 compounds (AID 602177). The note with it: multiplex microsphere protease cleavage assay, BoNT/F LC.

Calls of active or inactive are those of the source. No rule for the calls is given here. Some results are limits rather than exact numbers.

Take `Oc1[nH]c(N=C2N=c3ccccc3=N2)c2ccccc12`: the EC50 (usually the concentration needed to bring the measured effect to its halfway point) was > 20 µM (inactive).

The values are drawn from PubChem BioAssay AID602177 (NMMLSC, 2012).
